target: T1, human p38 kinase alpha (Homo sapiens, UniProt Q16539); experiment: p38 kinase in vitro assay, phosphorylation of biotinylated PHAS-I with gamma 32P-ATP; format: biochemical; settings: @ 1.0 uM
T1 construct: The coding region of the human p38a cDNA was obtained by PCR-amplification from RNA isolated from the human monocyte cell line THP.1; GST (N); made in house; host or cells: E. coli DH10B
Experimental: The ability of compounds to inhibit human p38 kinase alpha was evaluated using two in vitro assay methods. In the first method activated human p38 kinase alpha phosphorylates a biotinylated substrate, PHAS-I (phosphorylated heat and acid stable protein-insulin inducible), in the presence of gamma ^32P-ATP (^32P-ATP). PHAS-I was biotinylated prior to the assay and provides a means of capturing the substrate which is phosphorylated during the assay. p38 Kinase was activated by MKK6. Compounds were tested in 10 fold serial dilutions over the range of 100 μM to 0.001 μM using 1% DMSO. Each concentration of inhibitor was tested in triplicate.
All reactions were carried out in 96 well polypropylene plates. Each reaction well contained 25 mM HEPES pH 7.5, 10 mM magnesium acetate and 50 μM unlabeled ATP. […] The reaction proceeded either for one hour or overnight at 30° C.
Following incubation, 20 μl of reaction mixture was transferred to a high capacity streptavidin coated filter plate (SAM-streptavidin-matrix, Promega) prewetted with phosphate buffered saline. […] Filter plates were air dried and 20 μl of scintillant was added. The plates were sealed and counted.

T1 sequence (Q16539 whole entry): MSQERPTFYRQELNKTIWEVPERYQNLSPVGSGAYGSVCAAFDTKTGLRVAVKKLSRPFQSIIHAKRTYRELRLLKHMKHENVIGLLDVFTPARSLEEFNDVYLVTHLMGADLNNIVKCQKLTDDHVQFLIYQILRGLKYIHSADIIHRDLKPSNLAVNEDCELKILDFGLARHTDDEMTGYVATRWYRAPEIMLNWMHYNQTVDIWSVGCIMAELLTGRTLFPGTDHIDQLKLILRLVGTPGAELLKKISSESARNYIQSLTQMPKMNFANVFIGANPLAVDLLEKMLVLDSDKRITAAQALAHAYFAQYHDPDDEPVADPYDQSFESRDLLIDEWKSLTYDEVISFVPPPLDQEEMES

Compound | P38 alpha kinase % inhib @ conc. [% @ 1.0 uM]
O=C(NCc1[nH]nc(-c2ccc(F)cc2)c1-c1ccncc1)c1cc(C(F)(F)F)ccc1F [Example B-0050] | 73
O=C(CCC1CC=CC1)NCc1[nH]nc(-c2ccc(F)cc2)c1-c1ccncc1 [Example B-0038] | 71.0
O=C(NCc1[nH]nc(-c2ccc(F)cc2)c1-c1ccncc1)C1CCCN1C(=O)C(F)(F)F (stereo not shown) [Example B-0094] | 96

same assay, conditions: @ 1.0 uM; read-out: P38 alpha kinase % inhib @ conc.

Compound | inhibition at 1 µM [%]
COc1ccc(OC)c(S(=O)(=O)NCc2[nH]nc(-c3ccc(F)cc3)c2-c2ccncc2)c1 [Example B-0130] | 69
O=C(NCc1ccccc1)NCc1[nH]nc(-c2ccc(F)cc2)c1-c1ccncc1 [Example B-0151] | 43
O=C(NCc1[nH]nc(-c2ccc(F)cc2)c1-c1ccncc1)c1cc(F)ccc1F [Example B-0095] | 98
COC(=O)CC(=O)NCc1[nH]nc(-c2ccc(F)cc2)c1-c1ccncc1 [Example B-0091] | 96
COc1ccc(NC(=O)NCc2[nH]nc(-c3ccc(F)cc3)c2-c2ccncc2)c(OC)c1 [Example B-0167] | 40
N#Cc1ccccc1S(=O)(=O)NCc1[nH]nc(-c2ccc(F)cc2)c1-c1ccncc1 [Example B-0127] | 82
O=C(NCc1[nH]nc(-c2ccc(F)cc2)c1-c1ccncc1)c1ccccc1F [Example B-0074] | 92
C[C@@H](NC(=O)NCc1[nH]nc(-c2ccc(F)cc2)c1-c1ccncc1)c1ccccc1 [Example B-0176] | 50

Next, values leading:

inhibition at 1 µM [%] | Compound
83 | CCOc1ccc2ccccc2c1C(=O)NCc1[nH]nc(-c2ccc(F)cc2)c1-c1ccncc1 [Example B-0059]
77 | COc1cc(OC)cc(C(=O)NCc2[nH]nc(-c3ccc(F)cc3)c2-c2ccncc2)c1 [Example B-0072]
41 | COc1cc(C)c(S(=O)(=O)NCc2[nH]nc(-c3ccc(F)cc3)c2-c2ccncc2)c(C)c1C [Example B-0137]
94 | O=C(NCc1[nH]nc(-c2ccc(F)cc2)c1-c1ccncc1)c1ccc(F)cc1C(F)(F)F [Example B-0062]
91 | Cc1cccc(C(=O)NCc2[nH]nc(-c3ccc(F)cc3)c2-c2ccncc2)c1 [Example B-0067]
43 | COc1ccc(S(=O)(=O)NCc2[nH]nc(-c3ccc(F)cc3)c2-c2ccncc2)cc1OC [Example B-0131]

same assay, conditions: @ 10.0 uM; read-out: P38 alpha kinase % inhib @ conc.

Compound | inhibition at 10 µM [%]
CCOC(=O)C(C)NC(=O)NCc1[nH]nc(-c2ccc(F)cc2)c1-c1ccncc1 (stereo not shown) [Example B-0165] | 70
CCCCN(CCCC)c1cccc2c(S(=O)(=O)NCc3[nH]nc(-c4ccc(F)cc4)c3-c3ccncc3)cccc12 [Example B-0139] | 54
O=C(NCc1[nH]nc(-c2ccc(F)cc2)c1-c1ccncc1)Nc1ccc(F)cc1 [Example B-0174] | 54

Now from value to molecule:

inhibition at 10 µM [%] | Compound
72 | CC(=O)Nc1nc(C)c(S(=O)(=O)NCc2[nH]nc(-c3ccc(F)cc3)c2-c2ccncc2)s1 [Example B-0097]
58 | COC(=O)c1ccccc1NC(=O)NCc1[nH]nc(-c2ccc(F)cc2)c1-c1ccncc1 [Example B-0158]
45 | COc1ccccc1NC(=O)NCc1[nH]nc(-c2ccc(F)cc2)c1-c1ccncc1 [Example B-0166]
70 | CCCCCCCCCCS(=O)(=O)NCc1[nH]nc(-c2ccc(F)cc2)c1-c1ccncc1 [Example B-0125]
40 | O=C(NCc1[nH]nc(-c2ccc(F)cc2)c1-c1ccncc1)Nc1ccc(Oc2ccccc2)cc1 [Example B-0155]
27 | CC(C)c1ccccc1NC(=O)NCc1[nH]nc(-c2ccc(F)cc2)c1-c1ccncc1 [Example B-0179]
12 | O=C(NCc1[nH]nc(-c2ccc(F)cc2)c1-c1ccncc1)Nc1cc(Cl)ccc1Cl [Example B-0183]

same assay, conditions: activated human p38 kinase alpha, PHAS-I substrate, 50 μM unlabeled ATP; read-out: p38 kinase IC50

Compound | IC50 [nM]
COc1cc(F)cc(-c2[nH]nc(C)c2-c2ccncc2)c1 [Example A-25, 4-{5-(3-Fluoro-5-methoxyphenyl)-3-methyl-3-methyl-1H-pyrazol-4-yl}pyridine] | 2600

same assay, conditions: p38α in vitro, PHAS-I assay procedure; read-out: p38^1 IC50

Compound | IC50 [nM]
OCCn1cc(-c2ccnc(NCc3ccc(F)cc3)c2)c(-c2ccc(F)cc2)n1 [Example A-289, 3-(4-fluorophenyl)-4-[2-[[(4-fluorophenyl)methyl]amino]-4-pyridinyl]-1H-pyrazole-1-ethanol] | < 100
Cn1cc(-c2ccnc(NCCO)c2)c(-c2ccc(F)cc2)n1 [Example A-281, 2-[[4-[3-(4-fluorophenyl)-1-methyl-1H-pyrazol-4-yl]-2-pyridinyl]amino]ethanol] | 53

Further lines, results first:

IC50 [nM] | Compound
26 | Fc1ccc(-c2n[nH]cc2-c2ccnc(NC3CCNCC3)c2)cc1 [Example A-277, 4-[3-(4-fluorophenyl)-1H-pyrazol-4-yl]-N-4-piperadinyl-2-pyridinamine]
176 | Fc1ccc(CNc2cc(-c3cn(CCN4CCOCC4)nc3-c3ccc(F)cc3)ccn2)cc1 [Example A-276, N-[(4-fluorophenyl)methyl]-4-[3(or 5)-(4-fluorophenyl)-1-[[2-(4-morpholinyl)ethyl]-1H-pyrazol-4-yl]-2-pyridinamine]

same assay, conditions: read-out: P38 alpha kinase IC50

Compound | IC50 [nM]
COc1ccc(S(=O)(=O)N[C@H](C)c2[nH]nc(-c3ccc(F)cc3)c2-c2ccncc2)cc1 [Example B-0397] | 170
C[C@@H](NC(=O)c1ccc(F)c(F)c1)c1[nH]nc(-c2ccc(F)cc2)c1-c1ccncc1 [Example B-0501] | 49
Cc1cccc(Cl)c1S(=O)(=O)NCc1[nH]nc(-c2ccc(F)cc2)c1-c1ccncc1 [Example B-0243] | 39
CC(C)(C)C(=O)NCc1[nH]nc(-c2ccc(F)cc2)c1-c1ccncc1 [Example B-0201] | 290
N#Cc1cccc(C(=O)N2CCC(c3[nH]nc(-c4ccc(F)cc4)c3-c3ccncc3)CC2)c1 [Example B-1396] | 550
C[C@@H](NC(=O)c1ccc(F)c(C(F)(F)F)c1)c1[nH]nc(-c2ccc(F)cc2)c1-c1ccncc1 [Example B-0512] | 1000
CC(NS(=O)(=O)c1ccc(C(F)(F)F)cc1)c1[nH]nc(-c2ccc(F)cc2)c1-c1ccncc1 (stereo not shown) [Example B-0459] | 99
Clc1ccc(-c2n[nH]c(C3CCNCC3)c2-c2ccncn2)cc1 [Example C-136] | 32
C[C@@H](NC(=O)c1cccc(Cl)c1)c1[nH]nc(-c2ccc(F)cc2)c1-c1ccncc1 [Example B-0525] | 160
CCNC(=O)N[C@H](C)c1[nH]nc(-c2ccc(F)cc2)c1-c1ccncc1 [Example B-0421] | 460
COc1ccc(Cl)cc1S(=O)(=O)NCc1[nH]nc(-c2ccc(F)cc2)c1-c1ccncc1 [Example B-0253] | 61
O=C(c1ccccc1Br)N1CCC(c2[nH]nc(-c3ccc(F)cc3)c2-c2ccncc2)CC1 [Example B-1398] | 920
C[C@@H](NS(=O)(=O)c1cccs1)c1[nH]nc(-c2ccc(F)cc2)c1-c1ccncc1 [Example B-0398] | 54
C[C@@H](NC(=O)Nc1ccccc1F)c1[nH]nc(-c2ccc(F)cc2)c1-c1ccncc1 [Example B-0410] | 380
C[C@@H](NC(=O)C1CC1)c1[nH]nc(-c2ccc(F)cc2)c1-c1ccncc1 [Example B-0361] | 330

Next, values leading:

IC50 [nM] | Compound
6000 | O=C(O)CCc1[nH]nc(-c2ccc(F)cc2)c1-c1ccncc1 [Example C-135, 4-(4-(4-PYRIDYL)-3-(4-FLUOROPHENYL)PYRAZOLYL)PROPIONIC ACID]
1100 | C[C@@H](NC(=O)c1ccncc1)c1[nH]nc(-c2ccc(F)cc2)c1-c1ccncc1 [Example B-0378]
74 | CC1(C)C2CCC1(CS(=O)(=O)NCc1[nH]nc(-c3ccc(F)cc3)c1-c1ccncc1)C(=O)C2 (stereo not shown) [Example B-0226]
1370 | COc1cccc(C(=O)NC(C)c2[nH]nc(-c3ccc(F)cc3)c2-c2ccncc2)c1 (stereo not shown) [Example B-0557]
700 | O=C(NCCCc1[nH]nc(-c2ccc(F)cc2)c1-c1ccncc1)c1ccccc1Br [Example B-1355]
250 | CC(NS(=O)(=O)c1ccccc1C#N)c1[nH]nc(-c2ccc(F)cc2)c1-c1ccncc1 (stereo not shown) [Example B-0627]
1370 | CC(=O)OCC(=O)N[C@H](C)c1[nH]nc(-c2ccc(F)cc2)c1-c1ccncc1 [Example B-0353]
320 | C[C@@H](NC(=O)NCCc1ccccc1)c1[nH]nc(-c2ccc(F)cc2)c1-c1ccncc1 [Example B-0416]
660 | CC(NC(=O)c1ccc(F)cc1C(F)(F)F)c1[nH]nc(-c2ccc(F)cc2)c1-c1ccncc1 (stereo not shown) [Example B-0688]
15 | CS(=O)(=O)NC(Cc1ccccc1)c1[nH]nc(-c2ccc(F)cc2)c1-c1ccncc1 (stereo not shown) [Example B-0763]
290 | CC(=O)Nc1nc(C)c(S(=O)(=O)N[C@H](C)c2[nH]nc(-c3ccc(F)cc3)c2-c2ccncc2)s1 [Example B-0430]
4020 | C[C@@H](NC(=O)c1cnc2ccccc2n1)c1[nH]nc(-c2ccc(F)cc2)c1-c1ccncc1 [Example B-0384]
1080 | Cc1ccc(C(=O)NC(C)c2[nH]nc(-c3ccc(F)cc3)c2-c2ccncc2)cc1 (stereo not shown) [Example B-0551]
1250 | COc1ccc(Cl)cc1S(=O)(=O)NC(C)c1[nH]nc(-c2ccc(F)cc2)c1-c1ccncc1 (stereo not shown) [Example B-0655]

— US6525059B1, “Substituted pyrazoles as p38 kinase inhibitors” (G. D. Searle & Company, priority 1998, dated 2003)
